Test results as given in US10889575B2, “4,4-diphenylpiperidine compounds or pharmaceutically acceptable salts thereof, pharmaceutical compositions and uses thereof” (Academy of Military Medical Sciences, priority 2017, dated 2021).
Where “and” joins values, the source holds several entries; their conditions need not be identical. Identical values can stand only once. Counter-ions that a name gives are not always drawn. Like-named read-outs stand apart in the source and are kept apart here.

Tests used:
[1] = test system: acetic acid writhing in mice; test: mouse acetic acid writhing model (analgesic effect); assay type: in vivo, Kunming mice; conditions: intragastric 30 mg/kg; for Writhing inhibition rate (%): 40 min before i.p. 0.6% acetic acid, writhings counted over 15 min
Source text: 1. Experimental purposes: To determine the analgesic activity of Compound (4) hydrochloride and Compounds (1), (2), (3), (5) in a mouse acetic acid writhing model.
2. Experimental materials: Kunming mice (18-22 g), half male and half female, were provided by the Experimental Animal Center of the Academy of Military Medical Sciences.
The mice were weighed and labeled, 10 mice in each group (half male and half female), the mice were divided into 7 groups, including 5 experimental groups (using Compound (4) hydrochloride, Compound (1), (2), (3), (5), respectively), positive control group (using NMED-160) and negative control group (using normal saline). Among them, NMED-160 used in the positive control group was a selective small molecule N-type calcium ion channel blocker, which had entered the phase II clinical trial and could be synthesized by referring to document^[11], and the structural formula thereof is as follows: […]
The mice were intragastrically administered with drug (30 mg/kg). After 40 minutes, 0.4 mL of 0.6% (v/v) acetic acid was intraperitoneally injected. After 5 minutes, the number of mouse writhings in the subsequent 15 minutes was recorded. The inhibition rate of the drug on the acetic acid writhing in mice was calculated according to the following formula, and the analgesic effect of the drug was evaluated.
A represents the number of writhings in the negative control group;
B represents the number of writhings in the experimental groups or the positive control group.

[2] = test system: N-type calcium ion channel (α1B/β1b/α2δ); test: N-type calcium ion channel current suppression, two-electrode voltage clamp in Xenopus oocytes; assay type: cell-based; conditions: 10 μM
Procedure: To determine the current suppressing effects of Compound (4) hydrochloride and Compounds (1), (2), (3), (5) of the present invention on N-type calcium ion channel (α1B/β1b/α2δ) transiently expressed in Xenopus oocytes.
Plasmids α1B, α2δ, β1b were injected into Xenopus oocytes in concentration ratio of 1:1:1, and the total volume of the three plasmids injected into per cell was about 46 nL. The injected cells were placed in ND-96 medium at 18° C. for 48 hours, then the expressed current was recorded.
Perfusion administration method was adopted with a flow rate of 3 mL/min and a test drug concentration of 10 μM. Using two-electrode voltage clamp technique, the cell was clamped at −100 mV, stepped at 10 mV, depolarized to +60 mV, and the current was recorded.
Current inhibition rate (%)=100×(current amplitude after administration−current amplitude before administration)/current amplitude before administration

[3] = Rapid evaluation of pharmacokinetics in rats; assay type: in vivo, SD rats
Procedure: Compound (1) was dissolved in 25% (w/v) aqueous solution of hydroxypropyl-β-cyclodextrin;
Adult SD rats, 180-220 g in body weight, male, purchased from the Animal Center of the Academy of Military Medical Sciences, Animal Certificate SCXK-(Army)-2012-0004;
Six adult SD rats were randomly numbered, and divided into 2 groups to receive intravenous injection (i.v., 1.85 mg/kg) and oral administration (p.o., 11 mg/kg) of Compound (1), respectively; blood samples were collected at 0.1 mL before administration and 2 minutes, 5 minutes, 15 minutes, 30 minutes, 60 minutes, 2 hours, 4 hours, 7 hours and 24 hours after administration, placed in anticoagulation tubes, centrifuged for 15 minutes (3500 rpm) to separate plasma, and 0.05 mL plasma samples were accurately taken and frozen in a refrigerator at −30° C. for later tests.
To the 0.05 mL rat plasma sample, 0.3 mL of acetonitrile containing the internal standard substance megestrol (100 ng/mL) and 0.005 mL of blank acetonitrile were added, vortexed for 1 minute on a vortex mixer, and centrifuged for 10 minutes (14,000 g), about 0.15 mL of the supernatant was taken and placed into an injection vial, injected 5 μL to LC-MS/MS for detection and analysis by referring to the method of the above section 2. […] The results of 1 # to 3 # were averaged, the results of 4 # to 6 # were averaged, and the relationship curves of the average concentrations of Compound (1) in the rats of i.v. administration and in the rats of p.o. administration against time were obtained and shown in FIG. 2. The Winnolin pharmacokinetic software was used to analyze the measured data and calculate the main pharmacokinetic parameters, including the area under curve (AUC), clearance rate (CL), apparent distribution volume (V), terminal elimination half life (t1/2) and mean residence time (MRT) for the intravenous injection, as well as the area under curve (AUC), terminal elimination half life (t1/2), mean residence time (MRT), peak concentration (Cmax), time to peak (Tmax) and biological force (F) for the oral administration.

in vivo = conditions: SD, rat, iv
[4] = Evaluation of the central nervous system distribution in rats; conditions: for Kp at 2 h: SD, rat
[5] = male, SD, rat, plasma, intravenous injection 1.85 mg/kg, n = 3
[6] = male, SD, rat, plasma, oral administration 11 mg/kg, n = 3

O=C(CCN1CCC(c2ccccc2)(c2ccccc2)CC1)c1ccc2[nH]c(=O)oc2c1 [Compound (1), 6-(3-(4,4-diphenylpiperidinyl)-propionyl)benzoxazolin-2-one]
Writhing inhibition rate (%) [1]: 58.77%
analgesic effect (in words) ([1]; acetic acid writhing): comparable to that of NMED-160
Current inhibition rate (%) [2]: 70.6%
effect of liver metabolism on the clearance in vivo ([3]; i.v. clearance compared with rat liver blood flow (3.3 L/h/kg)): about 70%
V ([3]; intravenous injection 1.85 mg/kg, n = 3, 1.85 mg/kg): 12.39 L/kg and 12.39 ± 3.17 L/kg
AUC [3, 5]: 750 ± 98.2 ng·h/mL
MRT [3, 5]: 3.87 ± 0.18 h
clearance [3, 5]: 39.7 mL/min/kg
half-life [3, 5]: 5 ± 0.88 h
AUC [3, 6]: 1670 ± 222 ng·h/mL
Cmax [3, 6]: 188 ± 28.5 ng/mL
MRT [3, 6]: 5.6 ± 0.46 h
half-life [3, 6]: 5.4 ± 1.5 h
Tmax ([3]; male, SD, rat, plasma, po, 11 mg/kg, oral administration 11 mg/kg, n = 3, read-out: Tmax): 1 to 2 h
F ([3]; oral 11 mg/kg vs intravenous 1.85 mg/kg, n = 3): 44.7% and 44.7 ± 5.93%
Tmax ([3]; oral administration 11 mg/kg, n = 3, 11 mg/kg): 1.33 ± 0.58 h
melting point: 236 °C (dec.)
concentration at 2 h (in vivo): 271 ng/mL and 998 ng/g
Kp at 2 h ([4]; brain/plasma, intravenous): 3 ± 0.71
Kp at 2 h ([4]; in vivo): 3 to 4
Kp at 2 h ([4]; spinal cord/plasma, intravenous): 3.7 ± 1.3
Concentration, Rat brain tissue ([4]; rats, i.v. bolus then instillation, 2 hours after administration, n = 3): 808.3 ± 233.8 ng/g

COc1cc(CN2CCC(c3ccccc3)(c3ccccc3)CC2)cc(OC)c1OC (as salt: hydrochloride)
melting point: 235 to 237 °C

CN(C)c1ccc(CN2CCC(c3ccccc3)(c3ccccc3)CC2)cc1 [Compound (3), 1-(4-dimethylaminobenzyl)-4,4-diphenylpiperidine]
Writhing inhibition rate (%) [1]: 23.17%
Current inhibition rate (%) [2]: 42.3%
melting point: 128 to 130 °C

c1ccc(C2(c3ccccc3)CCN(Cc3cccs3)CC2)cc1 [Compound (5), 1-(2-methylthienyl)-4,4-diphenylpiperidine]
Writhing inhibition rate (%) [1]: 46.87%
Current inhibition rate (%) [2]: 45.3%

COc1cc(CN2CCC(c3ccccc3)(c3ccccc3)CC2)cc(OC)c1OC.Cl [Compound (4) hydrochloride, 1-(3,4,5-trimethoxybenzyl)-4,4-diphenylpiperidine hydrochloride]
Writhing inhibition rate (%) [1]: 39.68%
Current inhibition rate (%) [2]: 54.1%

O=C(CN1CCC(c2ccccc2)(c2ccccc2)CC1)c1ccc2[nH]c(=O)oc2c1 [Compound (2), 6-(3-(4,4-diphenylpiperidinyl)-acetyl)benzoxazolin-2-one]
Writhing inhibition rate (%) [1]: 54.66%
Current inhibition rate (%) [2]: 65.6%

O=C(CC(c1ccccc1)c1ccccc1)N1CCN(C(c2ccccc2)c2ccccc2)CC1 [NMED-160, reference compound]
Writhing inhibition rate (%) [1]: 51.75%
